Patent US20220289715A1, “PESTICIDALLY ACTIVE PYRAZINE-AMIDE COMPOUNDS” (priority 2019, published 2022)

Tests used:
Assay type in all cases: in vivo
[1] = system: Myzus persicae (Green Peach Aphid); assay: Example B5: Myzus persicae, intrinsic activity; conditions: 120 h, test rate of 12 ppm, 5 days after infestation
Text: Example B5: Myzus persicae (Green Peach Aphid). Intrinsic Activity
Test compounds prepared from 10,000 ppm DMSO stock solutions were applied by pipette into 24-well microtiter plates and mixed with sucrose solution. The plates were closed with a stretched Parafilm. A plastic stencil with 24 holes was placed onto the plate and infested pea seedlings were placed directly on the Parafilm. The infested plate was closed with a gel blotting paper and another plastic stencil and then turned upside down. The samples were assessed for mortality 5 days after infestation.

[2] = system: Diabrotica balteata (Corn Root Worm); assay: Example B1: Diabrotica balteata, spray on maize sprouts; conditions: 96 h, application rate of 200 ppm, L2 larvae, 4 days after infestation, read-out: control in at least one of the two categories (mortality or growth inhibition)
Summary of the method: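 Maize sprouts on agar were sprayed with aqueous dilutions of DMSO stock solutions, dried, then infested with L2 larvae (6–10 per well). Mortality and growth inhibition were scored against untreated controls 4 days after infestation; test rate 200 ppm.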

[3] = system: Myzus persicae (Green Peach Aphid); assay: Example B10: Myzus persicae, sucrose solution, 96-well; conditions: 120 h, application rate of 50 ppm, 5 days after infestation
Text: Example B10: Myzus persicae (Green Peach Aphid)
Test compounds prepared from 10,000 ppm DMSO stock solutions were applied by a liquid handling robot into 96-well microtiter plates and mixed with a sucrose solution. Parafilm was stretched over the 96-well microtiter plate and a plastic stencil with 96 holes was placed onto the plate. Aphids were sieved into the wells directly onto the Parafilm. The infested plates were closed with a gel blotting card and a second plastic stencil and then turned upside down. The samples were assessed for mortality 5 days after infestation.

[4] = system: Plutella xylostella (Diamondback Moth); assay: Example B9: Plutella xylostella, artificial diet, 96-well; conditions: 216 h, application rate of 500 ppm, eggs/L1 larvae, 9 days after infestation
Summary of the method: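 Test solutions made from 10,000 ppm DMSO stocks were applied to artificial diet in 96-well plates. After drying, ~30 eggs per well were placed on a suspended netted lid so hatching L1 larvae dropped onto the diet. Mortality was scored 9 days after infestation.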

[5] = system: Euschistus heros (Neotropical Brown Stink Bug); assay: Example B2: Euschistus heros, spray on soybean leaves; conditions: 120 h, application rate of 200 ppm, N2 nymphs, 5 days after infestation, read-out: control in at least one of the two categories (mortality or growth inhibition)
Protocol: Example B2: Euschistus heros (Neotropical Brown Stink Bug)
Soybean leaves on agar in 24-well microtiter plates were sprayed with aqueous test solutions prepared from 10,000 ppm DMSO stock solutions. After drying the leaves were infested with N2 nymphs. The samples were assessed for mortality and growth inhibition in comparison to untreated samples 5 days after infestation.
The following compounds gave an effect of at least 80% control in at least one of the two categories (mortality or growth inhibition) at an application rate of 200 ppm: […]

[6] = system: Chilo suppressalis (Striped Rice Stemborer); assay: Example B3: Chilo suppressalis, artificial diet; conditions: 144 h, application rate of 200 ppm, L2 larvae, 6 days after infestation, read-out: control in at least one of the three categories (mortality, anti-feedant effect, or growth inhibition)
Summary of the method: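 Artificial diet was treated with aqueous dilutions made from 10,000 ppm DMSO stocks, dried, and infested with L2 larvae (6-8 per well). After 6 days, mortality, anti-feeding effect and growth inhibition were scored against untreated samples. Control was recorded when any one category exceeded the untreated sample.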

[7] = system: Spodoptera littoralis (Egyptian Cotton Leaf Worm); assay: Example B6: Spodoptera littoralis, spray on cotton leaf discs; conditions: foliar, 72 h, application rate of 200 ppm, L1 larvae, 3 days after infestation, read-out: control in at least one of the three categories (mortality, anti-feedant effect, or growth inhibition)
Summary of the method: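 Leaf discs on agar sprayed with aqueous solutions made from 10,000 ppm DMSO stocks, then infested after drying with five L1 larvae. Mortality, anti-feeding and growth inhibition scored against untreated samples 3 days after infestation.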

[8] = system: Plutella xylostella (Diamond Back Moth); assay: Example B4: Plutella xylostella, artificial diet, 24-well; conditions: 192 h, application rate of 200 ppm, eggs, 8 days after infestation, read-out: control in at least one of the two categories (mortality or growth inhibition)
Summary of the method: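 Artificial diet in 24-well plates treated with aqueous dilutions of DMSO stocks, dried, then infested with diamondback moth eggs. Mortality and growth inhibition scored against untreated samples 8 days after infestation.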

[9] = system: Spodoptera littoralis (Egyptian Cotton Leaf Worm); assay: Example B7: Spodoptera littoralis, uptake by lettuce roots from agar; conditions: 144 h, test rate of 12.5 ppm, absorbed by lettuce roots, eggs, 6 days after infestation, read-out: control in at least one of the three categories (mortality, anti-feeding, or growth inhibition)
Text: Example B7: Spodoptera littoralis (Egyptian Cotton Leaf Worm)
Test compounds were applied by pipette from 10,000 ppm DMSO stock solutions into 24-well plates and mixed with agar. Lettuce seeds were placed onto the agar and the multi well plate was closed by another plate which contained also agar. After 7 days the compound was absorbed by the roots and the lettuce grew into the lid plate. The lettuce leaves were then cut off into the lid plate. Spodoptera eggs were pipetted through a plastic stencil onto a humid gel blotting paper and the lid plate was closed with it. The samples were assessed for mortality, anti-feedant effect and growth inhibition in comparison to untreated samples 6 days after infestation.
The following compounds gave an effect of at least 80% control in at least one of the three categories (mortality, anti-feeding, or growth inhibition) at a test rate of 12.5 ppm: […]

[10] = system: Tetranychus urticae (Two-Spotted Spider Mite); assay: Example B8: Tetranychus urticae, feeding/contact activity; conditions: 192 h
Protocol: Example B8: Tetranychus urticae (Two-Spotted Spider Mite): Feeding/Contact Activity
Bean leaf discs on agar in 24-well microtiter plates were sprayed with aqueous test solutions prepared from 10,000 ppm DMSO stock solutions. After drying the leaf discs were infested with a mite population of mixed ages. The samples were assessed for mortality on mixed population (mobile stages) 8 days after infestation.

CC(NC(=O)c1cc(C(F)(F)F)cc(C(C)(C)C#N)c1)c1nccnc1-n1nccn1 (centres unmarked) [Compound P6, 3-(1-cyano-1-methyl-ethyl)-N-[1-[3-(triazol-2-yl)pyrazin-2-yl]ethyl]-5-(trifluoromethyl)benzamide]
≥ 80%: mortality at 12 ppm [1] | percent control (mortality or growth inhibition) at 200 ppm [2] | mortality at 50 ppm [3] | mortality at 500 ppm [4] | percent control (mortality or growth inhibition) at 200 ppm [5] | percent control (mortality, anti-feedant effect or growth inhibition) at 200 ppm [6] | percent control (mortality, anti-feedant effect or growth inhibition) at 200 ppm [7] | percent control (mortality or growth inhibition) at 200 ppm [8]

C[C@H](NC(=O)c1cc(OC(F)F)cc(C(F)(F)F)c1)c1nccnc1-n1nccn1 [Compound P39, 3-(difluoromethoxy)-N-[(1S)-1-[3-(triazol-2-yl)pyrazin-2-yl]ethyl]-5-(trifluoromethyl)benzamide]
≥ 80%: mortality at 12 ppm [1] | percent control (mortality or growth inhibition) at 200 ppm [2] | percent control (mortality, anti-feeding or growth inhibition) at 12.5 ppm [9] | percent control (mortality or growth inhibition) at 200 ppm [5] | percent control (mortality, anti-feedant effect or growth inhibition) at 200 ppm [6] | percent control (mortality, anti-feedant effect or growth inhibition) at 200 ppm [7] | percent control (mortality or growth inhibition) at 200 ppm [8]

CC(NC(=O)c1cc(OCC(F)F)cc(C(F)(F)F)c1)c1nccnc1-n1nccn1 (centres unmarked) [Compound P12, 3-(2,2-difluoroethoxy)-N-[1-[3-(triazol-2-yl)pyrazin-2-yl]ethyl]-5-(trifluoromethyl)benzamide]
≥ 80%: mortality at 12 ppm [1] | percent control (mortality, anti-feeding or growth inhibition) at 12.5 ppm [9] | mortality at 50 ppm [3] | mortality at 500 ppm [4] | percent control (mortality or growth inhibition) at 200 ppm [5] | percent control (mortality, anti-feedant effect or growth inhibition) at 200 ppm [6] | percent control (mortality, anti-feedant effect or growth inhibition) at 200 ppm [7] | percent control (mortality or growth inhibition) at 200 ppm [8]

CC(NC(=O)c1cc(Cl)cc(Br)c1)c1nccnc1-n1nccn1 (centres unmarked) [Compound P35, 3-bromo-5-chloro-N-[1-[3-(triazol-2-yl)pyrazin-2-yl]ethyl]benzamide]
≥ 80%: percent control (mortality or growth inhibition) at 200 ppm [2] | mortality at 50 ppm [3] | mortality at 500 ppm [4] | mortality at 200 ppm [10] | percent control (mortality, anti-feedant effect or growth inhibition) at 200 ppm [6] | percent control (mortality, anti-feedant effect or growth inhibition) at 200 ppm [7] | percent control (mortality or growth inhibition) at 200 ppm [8]

CC(NC(=O)c1cc(C(F)(F)F)cc(C2(C#N)CC2)c1)c1nccnc1-n1nccn1 (centres unmarked) [Compound P16, 3-(1-cyanocyclopropyl)-N-[1-[3-(triazol-2-yl)pyrazin-2-yl]ethyl]-5-(trifluoromethyl)benzamide]
≥ 80%: mortality at 12 ppm [1] | percent control (mortality or growth inhibition) at 200 ppm [2] | mortality at 50 ppm [3] | mortality at 500 ppm [4] | percent control (mortality or growth inhibition) at 200 ppm [5] | percent control (mortality, anti-feedant effect or growth inhibition) at 200 ppm [6] | percent control (mortality, anti-feedant effect or growth inhibition) at 200 ppm [7] | percent control (mortality or growth inhibition) at 200 ppm [8]
